Laboratory results: patent US20140341983A1, “SMART™ SOLID ORAL DOSAGE FORMS” (priority 2011, published 2014)
Read-outs that look alike come from different tables or passages of the source.

Experiments:
[1] = octanol-water coefficient; cited from earlier work
[2] = cited from earlier work
[3] = @ 25° C., experimental; cited from earlier work
[4] = Breath 2-butanone after ingestion of food or 2-butanol taggant; conditions: foods: two servings; 2-butanol taggant: 40 mg ingested, n=7
Protocol: To assess the interference produced by food, 6 subjects rapidly consumed (<5 min) two servings (≈16 fl. Oz) of yogurt or 2 servings (≈60 g) of cheddar cheese and breath samples were collected for 60 min after ingestion.

[5] = cited from earlier work; remark: listed apart in the source
[6] = Aim 1: breath kinetics and dose-response after sublingual solutions (SAW); format: in vivo, human
Protocol: Dose-response relationships were determined in four study participants following sublingual administration of solutions containing D-limonene and methyl salicylate. […] Five seconds after administration of the solution, the participant would blow a single five second breath into the SAW sensor. […] The participant kept his or her mouth closed when not providing a sample and refrained from breathing through the mouth or talking during the collection period. In addition, the more promising solutions (7, 12 and 16) were tested in triplicate to estimate reproducibility within individuals.

[7] = D-limonene recovery from placebo SL powder by LCMS (stability); format: physicochemical
Protocol: Three replicate 30 mg portions of this powder were removed immediately after preparation and extracted with acetonitrile to recover the D-limonene. The extracts were analyzed by liquid chromatography-mass spectrometry (LCMS). This was repeated with three more portions after four hours and again after eight hours (FIG. 26).

[8] = Oral vanillin detection by direct breath LCMS (OrbiTrap); format: in vivo, human; conditions: 30 μg vanillin in 10 μL neat ethanol on tongue
From the text: In the lower panel of FIG. 14, note how an internal standard (semi-volatile organic acid) stays constant for each of the six breaths.

[9] = dose that can be taken for remainder of life without regulatory concern

COC(=O)c1ccccc1N [methyl anthranilate]
log P [1]: 1.88 | Water Sol ([2]; @ 25° C.): 2,850 @ 25 °C mg/L

CC(C)[C@@H]1CC[C@@H](C)C[C@H]1O (racemic) [DL-menthol]
Water Sol ([2]; @ 25° C.): 456 @ 25 °C mg/L | VP (vapor pressure) [3]: 0.0637 @ 25 °C mmHg

CCC(C)O (stereo not drawn) [Formulation 2-butanol, 2-butanol]
Maximum 2-butanone (Cmax) in breath [4]: ≈ 549 ppb | Tmax of 2-butanone in breath [4]: 6.7 ± 0.6 min | permissible daily exposure (PDE) [5, 9]: 300 mg/day | permissible daily exposure (PDE) ([5]; orally): 300 mg orally per day

COC(=O)c1ccccc1O [methyl salicylate, methyl-2-hydroxybenzoate]
time course of flavorant concentration in exhaled breath ([6]; after a single SL administration): decayed exponentially over time | breath concentration measured at 5 seconds lost by 50 seconds ([6]; single SL administration, average): 50% | log P [1]: 2.55 | Water Sol ([2]; @ 30° C.): 700 @ 30 °C mg/L | VP (vapor pressure) [3]: 0.0343 @ 25 °C mmHg

CCCC(C)=O [Formulation 2-pentanone, 2-pentanone]
permissible daily exposure (PDE) [5, 9]: 250 mg/day | permissible daily exposure (PDE) ([5]; orally): 250 mg orally per day

C=C(C)[C@H]1CC=C(C)CC1 [D-limonene, 4-isopropenyl-1-methylcyclohexene]
breath concentration measured at 5 seconds lost by 50 seconds ([6]; human, in vivo): 78% | time course of flavorant concentration in exhaled breath ([6]; in vivo): decayed exponentially over time | D-limonene dose recovered from SL powder ([7]; at eight hours): 11% | D-limonene dose recovered from SL powder ([7]; at four hours): 22% | D-limonene dose recovered from SL powder ([7]; just after preparation): Approximately 65%

C=C(C)[C@@H]1CC=C(C)C(=O)C1 [L-carvone]
log P [1]: 2.71 | Water Sol ([2]; @ 25° C.): 1,310 @ 25 °C mg/L | VP (vapor pressure) [3]: 0.103 @ 25 °C mmHg

CCO [ethanol, reference compound]
permissible daily exposure (PDE) ([5]; orally): 166.7 mg orally per day

COc1cc(C=O)ccc1O [vanillin, 4-hydroxy-3-methoxybenzaldehyde]
persistence in human breath [8]: 2 min | persistence in human breath ([8]; listed as Vanillin): ≈ 2 min | Water Sol ([2]; @ 25° C.): 11,000 @ 25 °C mg/L | VP (vapor pressure) [3]: 1.18E-04 @ 25 °C mmHg

CC(C)c1cccc(C(C)C)c1O [propofol, reference compound]
Water Sol ([2]; @ 25° C.): 124 @ 25 °C mg/L | VP (vapor pressure) [3]: 0.00305 @ 25 °C mmHg
